Data from the Kinase Knowledgebase extract (Sharma et al. 2016).

target: PIK3CD (Human) (UniProt O00329); assay: Cell-Based Assay; details: u937
Sequence (O00329 whole entry, looked up): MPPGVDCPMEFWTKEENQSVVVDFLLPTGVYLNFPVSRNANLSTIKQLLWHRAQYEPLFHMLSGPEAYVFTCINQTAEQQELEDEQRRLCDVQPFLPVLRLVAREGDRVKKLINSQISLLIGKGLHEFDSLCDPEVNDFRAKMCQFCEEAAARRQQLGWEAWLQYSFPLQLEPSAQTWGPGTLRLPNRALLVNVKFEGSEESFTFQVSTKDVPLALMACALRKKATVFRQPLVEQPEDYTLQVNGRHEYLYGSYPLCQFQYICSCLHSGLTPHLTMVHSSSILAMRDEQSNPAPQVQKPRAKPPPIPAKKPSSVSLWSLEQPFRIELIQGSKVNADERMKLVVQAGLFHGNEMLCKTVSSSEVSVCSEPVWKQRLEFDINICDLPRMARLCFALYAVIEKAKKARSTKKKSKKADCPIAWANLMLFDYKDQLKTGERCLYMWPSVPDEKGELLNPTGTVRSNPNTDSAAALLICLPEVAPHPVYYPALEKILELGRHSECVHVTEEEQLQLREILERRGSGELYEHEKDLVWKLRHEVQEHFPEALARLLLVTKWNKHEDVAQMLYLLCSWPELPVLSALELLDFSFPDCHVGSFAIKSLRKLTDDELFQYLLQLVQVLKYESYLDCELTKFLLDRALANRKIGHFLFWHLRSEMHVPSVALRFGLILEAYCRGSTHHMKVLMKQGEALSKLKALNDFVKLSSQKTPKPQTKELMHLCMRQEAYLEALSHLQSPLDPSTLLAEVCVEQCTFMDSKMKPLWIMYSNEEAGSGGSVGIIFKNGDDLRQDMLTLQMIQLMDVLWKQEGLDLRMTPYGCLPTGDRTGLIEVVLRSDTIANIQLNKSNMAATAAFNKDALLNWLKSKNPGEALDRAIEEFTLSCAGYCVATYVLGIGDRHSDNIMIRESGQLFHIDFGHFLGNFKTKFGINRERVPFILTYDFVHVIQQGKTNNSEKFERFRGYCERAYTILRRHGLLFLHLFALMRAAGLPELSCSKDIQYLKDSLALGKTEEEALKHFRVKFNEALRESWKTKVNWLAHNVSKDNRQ

Structure (SMILES)	IC50
C#Cc1cccc2nc(Cn3nc(-c4cccc(O)c4)c4c(N)ncnc43)n(Cc3cccc(Cl)c3)c(=O)c12	< 10 nM
C#Cc1cccc2nc(Cn3nc(-c4ccc(O)cc4)c4c(N)ncnc43)n(Cc3cccc(Cl)c3F)c(=O)c12	< 10 nM
C#Cc1cccc2nc(Cn3nc(-c4ccc(O)cc4)c4c(N)ncnc43)n(Cc3ccc(C(F)(F)F)cc3)c(=O)c12	< 10 nM
C#Cc1cccc2nc(Cn3nc(-c4ccc(O)cc4)c4c(N)ncnc43)n(Cc3cc(OC)ccc3F)c(=O)c12	< 10 nM
COCC#Cc1cccc2nc(Cn3nc(-c4cccc(O)c4)c4c(N)ncnc43)n(Cc3ccc(Cl)cc3)c(=O)c12	< 10 nM
C#Cc1cccc2nc(Cn3nc(-c4ccc(O)cc4)c4c(N)ncnc43)n(Cc3ccccc3Cl)c(=O)c12	< 10 nM
Nc1ncnc2c1c(-c1cccc(O)c1)nn2Cc1nc2cccc(C#CCCCCC(=O)O)c2c(=O)n1Cc1ccccc1Cl	< 10 nM
Nc1ncnc2c1c(-c1ccc(O)cc1)nn2Cc1nc2cccc(C#CCCCC(=O)Nc3ccncc3)c2c(=O)n1Cc1ccccc1Cl	< 10 nM
COc1cc(Cn2c(Cn3nc(-c4ccc(O)cc4)c4c(N)ncnc43)nc3cccc(C#CCCCC(=O)N4CCOCC4)c3c2=O)cc(C(F)(F)F)c1	< 10 nM
C#Cc1cccc2nc(Cn3nc(-c4ccc(O)cc4)c4c(N)ncnc43)n(Cc3ccc(Cl)c(Cl)c3)c(=O)c12	< 10 nM
C#Cc1cccc2nc(Cn3nc(-c4ccc(O)cc4)c4c(N)ncnc43)n(Cc3ccc(Cl)cc3)c(=O)c12	< 10 nM
COc1cccc(Cn2c(Cn3nc(-c4ccc(O)cc4)c4c(N)ncnc43)nc3cccc(C#CCCCC(=O)N4CCOCC4)c3c2=O)c1F	< 10 nM
C#Cc1cccc2nc(Cn3nc(-c4cccc(O)c4)c4c(N)ncnc43)n(Cc3ccc(Cl)cc3)c(=O)c12	< 10 nM
Nc1ncnc2c1c(-c1cccc(O)c1)nn2Cc1nc2cccc(C#CCOCCN3CCOCC3)c2c(=O)n1Cc1ccccc1Cl	< 10 nM
C#Cc1cccc2nc(Cn3nc(-c4cccc(O)c4)c4c(N)ncnc43)n(Cc3cccc(S(C)(=O)=O)c3)c(=O)c12	< 10 nM
C#Cc1cccc2nc(Cn3nc(-c4ccc(O)cc4)c4c(N)ncnc43)n(Cc3cccc(OC)c3)c(=O)c12	< 10 nM
Nc1ncnc2c1c(-c1ccc(O)cc1)nn2Cc1nc2cccc(C#CCCCC(=O)NCCN3CCOCC3)c2c(=O)n1Cc1ccccc1Cl	< 10 nM
COCCN1CCN(C(=O)CCCC#Cc2cccc3nc(Cn4nc(-c5ccc(O)cc5)c5c(N)ncnc54)n(Cc4ccccc4Cl)c(=O)c23)CC1	< 10 nM
C#Cc1cccc2nc(Cn3nc(-c4ccc(O)cc4)c4c(N)ncnc43)n(Cc3c(F)cccc3F)c(=O)c12	< 10 nM

Structure (SMILES)	IC50
CN(C)C1CCN(C(=O)CCCC#Cc2cccc3nc(Cn4nc(-c5cccc(O)c5)c5c(N)ncnc54)n(Cc4ccccc4Cl)c(=O)c23)C1 (configuration not stated)	10 to 1000 nM
CN1CCCN(C(=O)CCCC#Cc2cccc3nc(Cn4nc(-c5ccc(O)cc5)c5c(N)ncnc54)n(Cc4ccccc4Cl)c(=O)c23)CC1	< 10 nM
Nc1ncnc2c1c(-c1cccc(O)c1)nn2Cc1nc2cccc(C#CCCCC(=O)N3CCC(N4CCOCC4)CC3)c2c(=O)n1Cc1ccccc1Cl	< 10 nM
C#Cc1cccc2nc(Cn3nc(-c4cccc(O)c4)c4c(N)ncnc43)n(Cc3ccccc3F)c(=O)c12	< 10 nM
C#Cc1cccc2nc(Cn3nc(-c4ccc(O)cc4)c4c(N)ncnc43)n(Cc3ccc(OC)cc3F)c(=O)c12	< 10 nM
CN1CCN(C(=O)CCCC#Cc2cccc3nc(Cn4nc(-c5cccc(O)c5)c5c(N)ncnc54)n(Cc4ccccc4Cl)c(=O)c23)CC1	< 10 nM
Nc1ncnc2c1c(-c1ccc(O)cc1)nn2Cc1nc2cccc(C#CCCCNC3CCCC3)c2c(=O)n1Cc1ccccc1Cl	< 10 nM
COCCN(CCCC#Cc1cccc2nc(Cn3nc(-c4ccc(O)cc4)c4c(N)ncnc43)n(Cc3ccccc3Cl)c(=O)c12)CCOC	< 10 nM
Nc1ncnc2c1c(-c1cccc(O)c1)nn2Cc1nc2cccc(C#CCCCC(=O)N3CCOCC3)c2c(=O)n1Cc1ccccc1Cl	< 10 nM
COCC#Cc1cccc2nc(Cn3nc(-c4ccc(O)cc4)c4c(N)ncnc43)n(Cc3ccccc3Cl)c(=O)c12	< 10 nM
C#Cc1cccc2nc(Cn3nc(-c4ccc(O)cc4)c4c(N)ncnc43)n(Cc3ccccc3C(F)(F)F)c(=O)c12	< 10 nM
Nc1ncnc2c1c(-c1ccc(O)cc1)nn2Cc1nc2cccc(C#CCCCC(=O)NC3CCOCC3)c2c(=O)n1Cc1ccccc1Cl	< 10 nM
Nc1ncnc2c1c(-c1ccc(O)cc1)nn2Cc1nc2cccc(C#CCC3CCCC3)c2c(=O)n1Cc1ccccc1Cl	< 10 nM
COCC#Cc1cccc2nc(Cn3nc(-c4ccc(O)cc4)c4c(N)ncnc43)n(Cc3cccc(OC)c3)c(=O)c12	< 10 nM
Nc1ncnc2c1c(-c1ccc(O)cc1)nn2Cc1nc2cccc(C#CCCCC(=O)N3CCOCC3)c2c(=O)n1Cc1ccccc1F	< 10 nM
COCCN(CCOC)C(=O)CCCC#Cc1cccc2nc(Cn3nc(-c4ccc(O)cc4)c4c(N)ncnc43)n(Cc3ccccc3Cl)c(=O)c12	< 10 nM
Nc1ncnc2c1c(-c1cccc(O)c1)nn2Cc1nc2cccc(C#CCCNC(=O)N3CCOCC3)c2c(=O)n1Cc1ccccc1Cl	< 10 nM
C#Cc1cccc2nc(Cn3nc(-c4ccc(O)cc4)c4c(N)ncnc43)n(Cc3cc(C)on3)c(=O)c12	< 10 nM
